The test system of this assay is C. pneumoniae strain AR-39 in HMEC-1 cells. Nature of the assay: Assay for growth (infectivity) enhancing activity: C. pneumoniae inclusion counts in HMEC-1 cell culture. Conditions: for enhancement of growth of C. pneumoniae strain AR-39 in HMEC-1 cells: added to culture medium at 1, 5 and 10 ng/mL, 3 days incubation. It is filed as cell-based. Here is the method:
To assay for growth enhancing activity, conditioned medium, fractions of conditioned medium, insulin-like growth factor-1 (IGF-1) and IGF-2 were tested in HMEC-1 cell culture for enhanced susceptibility to C. pneumoniae. HMEC-1 cells were trypsinized from stock cultures and plated to achieve a cell monolayer in 24 h in 24-well culture plates. A 12 mm diameter glass coverslip was placed in each well for growing cells for ease of staining for microscopic observation and counting inclusions for assaying titers. For inoculation of cell culture, the culture fluid was removed and the cell monolayer washed three times with Hank's balanced salt solution. Two-tenth mL of inoculum were added per well and the plate was centrifuged for 1 h at 700 to 800× g at 25° C. After centrifugation, the inocula were removed, 1 mL of specified culture medium was added, and the plates were incubated in a CO2 incubator at 35° C. for 3 days. After incubation, coverslips were removed, fixed with methanol and stained with a Chlamydia genus-specific monoclonal antibody conjugated with fluorescein isothiocyanate. Inclusions were counted in 30 random fields at ×400 magnification. The infectivity titers were expressed as inclusion forming units (ifus) per milliliter, which had been adjusted for dilution factor and inoculum size (Furness et al., J. Gen Micro. 23:213-9, 1960). Triplicate coverslips were counted in each experiment. Experiments were repeated 2 or 3 times.
Characterization of Chlamydial growth enhancing factors was carried out as follows. Conditioned medium of a one day old culture of U937 cells in RPMI supplemented with 2% fetal calf serum was used. Conditioned medium was heated at 70° C. for 2 h and tested for growth enhancing activity against AR-39 in HMEC-1 cells. An equal volume of conditioned medium was mixed with fresh endothelial basal medium containing 2% fetal calf serum for culturing infected HMEC-1 cells.
For determining molecular size, one day old conditioned medium of U937 cells cultured in serum-free macrophage culture medium was fractionated into molecular weight ranges of larger than 30,000, 30,000 to 10,000, 10,000 to 5,000 and smaller than 5,000 using three different pore size filters, Biomax-30, Biomax-10 and Biomax-5 ultrafilters (Millipore, Bedford, Mass.) with the molecular weight cut-off of 30,000; 10,000; and 5,000, respectively. For size fractionation, a starting volume of 200 mL of conditioned medium was used. Each fraction was concentrated to 2 mL (a 100× concentration). The remaining filtrate which had been passed through the 5,000 molecular weight pore size filter also was saved for testing. That fraction and the starting conditioned medium were tested without concentration. […]

For the substance insulin-like growth factor-1 [IGF-1], the “enhancement of growth of C. pneumoniae strain AR-39 in HMEC-1 cells” value was “not”.
Turning to insulin-like growth factor-2 [IGF-2], the “enhancement of growth of C. pneumoniae strain AR-39 in HMEC-1 cells” value is listed as “enhanced the growth”. Further, the “enhancing activity (increase)” value (0.5 ng/mL, p<0.05, N=3) was 35%. In addition, for the setting “5 ng/mL, p<0.001”, the “enhancing activity (increase)” value is on record as 256%.

These data come from US20030021782A1, “Chlamydia infection” (priority 2001, published 2003).
